In patent publication US9867861B2, “Process for the large scale production of fruit cells and treatment of diseases with such cells” (priority 2012, dated 2018):

Key:
[1] = Solubility assay of resveratrol sources in water; format: physicochemical; details: acidified water (pH=2) as well as pH 7.0
[2] = test system: carrageenan induced rat paw edema; details: resveratrol 50 mg/kg body weight before carrageenan; Gentilli et al (2001); cited from earlier work
[3] = test system: carrageenan-induced hind paw inflammation (hyperalgesia); experiment: Hot plate method, inflammatory nociception in freely moving rats after carrageenan; format: in vivo, rat; details: indomethacin 2 mg/kg, vs vehicle control
Procedure: The study assessed the efficacy of the RGC by two methods: • 1. Paw volume measurements • 2. Inflammatory nociception in freely moving rats Materials and Methods: Red Grape Cells (RGC) prepared according to example 1. • RGC was administered orally at dose of 400 mg/kg body weight (2 ml/40 mg) as a suspension in sterile drinking water, 2 h before carrageenan injection. • RGC Composition: […] Rats were divided into three groups of eight rats in each group. The rats in all groups were injected with 1% carrageenan (0.1 mg/paw) or sterile saline (0.9% NaCl) into the sub plantar tissue of left hind paw of each rat. • The Following Tests were Performed: • Paw Volumes Measurements • Carrageenan injected paw volumes were measured hourly just before carrageenan injection 0 and 1, 2, 4 hours after injection using caliper. • The paw dimensions were measured in two axes and paw volume was calculated. Paw edema volume in this model was an indication of the inflammation severity. • For each time point, the change in paw volume was calculated either by subtracting the baseline paw volume or as % of baseline paw volume. Hot Plate Method for Measuring Inflammatory Nociception in Freely Moving Rats The hot plate method was used to determine inflammatory nociception in freely moving rates. […]

[4] = test system: carrageenan induced rat paw edema; experiment: Carrageenan induced rat paw edema, paw volume measurements; format: in vivo; details: indomethacin 2 mg/kg 2 h before carrageenan; vs vehicle control
Text: The aim of the present study was to evaluate the in vivo anti-inflammatory activity of RGC (Red Grape Cells) made according to the large scale process of the invention in an acute inflammation model in rats so as to verify the efficiency of the cells produced according to the invention. One of the experimental model most widely used to study acute inflammation in rodents is that based on the intraplantar administration of carrageenan. The study assessed the efficacy of the RGC by two methods: • 1. Paw volume measurements • 2. […] The rats in all groups were injected with 1% carrageenan (0.1 mg/paw) or sterile saline (0.9% NaCl) into the sub plantar tissue of left hind paw of each rat. • The Following Tests were Performed: • Paw Volumes Measurements • Carrageenan injected paw volumes were measured hourly just before carrageenan injection 0 and 1, 2, 4 hours after injection using caliper. • The paw dimensions were measured in two axes and paw volume was calculated. Paw edema volume in this model was an indication of the inflammation severity. • For each time point, the change in paw volume was calculated either by subtracting the baseline paw volume or as % of baseline paw volume. […]

| Compound | Dissolution of RES in water, percentage compared to dissolution in 80% methanol [1] [%] | Paw edema [2] | Hot plate latency, % from baseline [3] | Hot plate latency delta, baseline-actual time ([3]; 2 and 4 h) | Paw edema (volume %) [4] |
| --- | --- | --- | --- | --- | --- |
| Oc1ccc(/C=C/c2cc(O)cc(O)c2)cc1 [Synthetic-RES, trans-3,5,4′-trihydroxystilbene] | 7 | failed to reduce paw edema | – | – | – |
| COc1ccc2c(c1)c(CC(=O)O)c(C)n2C(=O)c1ccc(Cl)cc1 [indomethacin] | – | – | statistically significant difference at 2 and 4 h | significant decrease in the latency delta | statistically significant difference at 2 and 4 h |
